The values that follow come from patent publication US20060003980A1, “Cobalt(II) complexes as protein tyrosine kinase inhibitors” (priority 2004, published 2006).

The target of experiment [1] is FGF receptor (FGFr) (Homo sapiens, UniProt P11362). As to the kind of experiment: Tyrosine kinase activity of FGFr using poly E4Y and 32P-ATP. Type of experiment: biochemical. As for the experimental part:
Recombinant human Src was expressed using the baculovirus-insect cell system and purified as published (Budde et al., 1993). Recombinant Csk and the FGF receptor (FGFr) were expressed as glutathione-S-transferase fusion proteins using the pGEX expression vector and E. coli, and purified as described (Sun et al., 1995). The tyrosine kinase activity of Src, Csk and FGFr was determined using poly E4Y and ^32P-ATP. […] Poly E4Y is a synthetic peptide whose phosphorylation is measured in this assay by the addition of the radioactively labeled phosphate from the ATP (Budde et al., 1994). For screening assays, 50 μg/ml poly E4Y was used.

Experiment [2] has as its target Src (Homo sapiens, UniProt P12931). Put plainly: Tyrosine kinase activity of Src using poly E4Y and 32P-ATP. Type of experiment: biochemical. As for the experimental part:
(§1) Recombinant human Src was expressed using the baculovirus-insect cell system and purified as published (Budde et al., 1993). Recombinant Csk and the FGF receptor (FGFr) were expressed as glutathione-S-transferase fusion proteins using the pGEX expression vector and E. coli, and purified as described (Sun et al., 1995).
(§2) The tyrosine kinase activity of Src, Csk and FGFr was determined using poly E4Y and ^32P-ATP. Briefly, enzymes were assayed in a reaction mixture consisting of 0.15 M EPPS-NaOH (pH 8.0) with 6 mM MgCl2, 0.2 mM γ^32P-ATP (0.2-0.4 mCi/μmol), 10% glycerol, 0.1% Triton X-100, and poly E4Y. Poly E4Y is a synthetic peptide whose phosphorylation is measured in this assay by the addition of the radioactively labeled phosphate from the ATP (Budde et al., 1994). For screening assays, 50 μg/ml poly E4Y was used.

The target in experiment [3] is T1, Csk (Homo sapiens, UniProt P41240).
T1 construct: GST (glutathione-S-transferase); made in house; host or cells: E. coli (pGEX vector)
As to the kind of experiment: Tyrosine kinase activity of Csk using poly E4Y and 32P-ATP. Type of experiment: biochemical. How it is done:
as §1, §2

Experiment [4] concerns cell growth. As to the kind of experiment: Cell growth inhibition (FIG. 1). Type of experiment: cell-based. From the text:
FIG. 1 graphically illustrates that a stable cobalt-tyrosineamide identified as complex no.
This indicates a requirement for both the tyrosine amide moiety and for the metal moiety.

Setting [5] is: * = Extrapolated value from the graph.

Entries after “also recorded” stand apart in the source; their conditions may differ. Read-outs that look alike come from different tables or passages of the source.

Sequence of FGF receptor (FGFr) (P11362 398-822): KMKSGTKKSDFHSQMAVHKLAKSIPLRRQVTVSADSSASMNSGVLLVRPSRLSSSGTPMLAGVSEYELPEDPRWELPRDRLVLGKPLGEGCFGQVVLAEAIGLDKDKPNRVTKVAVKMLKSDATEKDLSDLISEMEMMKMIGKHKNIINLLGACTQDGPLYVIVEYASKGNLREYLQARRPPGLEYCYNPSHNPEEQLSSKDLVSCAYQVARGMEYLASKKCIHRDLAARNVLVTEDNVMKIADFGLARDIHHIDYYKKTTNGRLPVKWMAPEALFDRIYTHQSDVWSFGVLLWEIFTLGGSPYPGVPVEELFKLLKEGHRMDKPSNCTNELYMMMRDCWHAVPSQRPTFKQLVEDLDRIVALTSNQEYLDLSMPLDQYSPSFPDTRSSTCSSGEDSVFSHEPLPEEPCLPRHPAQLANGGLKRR
T1 sequence (P41240 whole entry, species assumed): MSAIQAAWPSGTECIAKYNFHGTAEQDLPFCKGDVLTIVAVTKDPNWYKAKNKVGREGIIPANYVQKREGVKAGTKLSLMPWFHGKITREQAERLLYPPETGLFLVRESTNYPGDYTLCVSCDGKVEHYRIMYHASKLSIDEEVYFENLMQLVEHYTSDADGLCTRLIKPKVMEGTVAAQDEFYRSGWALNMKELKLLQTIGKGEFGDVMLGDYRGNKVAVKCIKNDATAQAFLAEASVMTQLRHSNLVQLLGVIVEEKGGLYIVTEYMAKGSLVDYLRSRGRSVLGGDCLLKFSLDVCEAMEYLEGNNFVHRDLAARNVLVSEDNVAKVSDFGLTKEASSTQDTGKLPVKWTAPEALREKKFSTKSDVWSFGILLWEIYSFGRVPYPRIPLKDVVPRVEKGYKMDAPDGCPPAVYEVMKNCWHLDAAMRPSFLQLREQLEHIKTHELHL

As to `O=Cc1ccccc1[O-].O=Cc1ccccc1[O-].[Co+2]` [Complex 44, Co(salicylaldehyde)2], the half-maximal inhibitory concentration (IC50) (in general, the point on the concentration scale where inhibition reaches its midpoint) is 148 µM in experiment [1] (setting [5]) and 113 µM in experiment [2].

In turn, `[Cl][Co]([Cl])([PH](c1ccccc1)(c1ccccc1)c1ccccc1)[PH](c1ccccc1)(c1ccccc1)c1ccccc1` [Complex 37] showed an IC50 in experiment [1] of 76 µM.

Take `NCC(=O)NO.[OH][Co][OH]` [Complex 5]: the IC50 in experiment [2] (setting [5]) was 259 µM.

In the case of `[Co+2].[O-]c1ccccc1C=Nc1ccccc1N=Cc1ccccc1[O-]` [Complex 36, Co[N,N-bis(salicylidene)1,2-phenylenediamine]], the IC50 in experiment [3] (setting [5]) was 128 µM; in experiment [1] it was 1 µM; in experiment [2], 28 µM.

With `Nc1ccccc1N.[Cl-].[Cl-].[Co+2]` [Complex 25], the 50% inhibitory concentration (IC50) is 210 µM in experiment [3] (setting [5]), 14 µM in experiment [1] and 9 µM in experiment [2].

Regarding `CC(=O)C=C(C)[O-].CC(=O)C=C(C)[O-].[Co+2]` [Complex 41], the IC50 in experiment [1] (setting [5]) is 233 µM; in experiment [2] (setting [5]), 177 µM.

Take `NCCC(=O)NO.[OH][Co][OH]` [Complex 8]: the results for the IC50 in experiment [3] (setting [5]) and in experiment [2] were 150 µM and 100 µM, respectively.

For the compound `NC(Cc1ccc(O)cc1)C(=O)NO.[Co+2].[O-][Cl+3]([O-])([O-])[O-].[O-][Cl+3]([O-])([O-])[O-]` (centres unmarked) [Complex 1], it took 14 µM to reach half-maximal inhibition in experiment [1] (IC50).

In the case of `N[C@@H]1CCCC[C@H]1N.[Cl-].[Cl-].[Co+2]` (racemic) [Complex 30], the values for the 50% inhibitory concentration (IC50) in experiment [1] (setting [5]) and in experiment [2] were 123 µM and 79 µM, respectively.

`CC(=O)[O-].NC(=O)C(N)Cc1ccc(O)cc1.[Co+2].[OH-]` (centres unmarked) [Complex 16]: the IC50 in experiment [2] (setting [5]) is 285 µM.

On to `NC(=O)CCC(N)C(=O)[O][Co][Cl]` (centres unmarked) [Complex 21], for which the IC50 in experiment [3] (setting [5]) was 389 µM; in experiment [1], 93 µM; in experiment [2] it was 58 µM.

`N[C@H](c1ccccc1)[C@H](N)c1ccccc1.N[C@H](c1ccccc1)[C@H](N)c1ccccc1.[Cl][Co][Cl].[Cl][Co][Cl]` [Complex 31]: the values for the IC50 in experiment [3], in experiment [1] and in experiment [2] were 50 µM, 98 µM and 55 µM, respectively.

With `O=C([O][Co][O]C(=O)c1ccccc1S)c1ccccc1S` [Complex 34], the half-inhibitory concentration (IC50) in experiment [1] turned out to be 125 µM.

The compound `O=C(C=C(O)C(F)(F)F)C(F)(F)F` [Complex 42] yielded a concentration for half-maximal inhibition (IC50) in experiment [2] of 105 µM.

`NC(=O)CCC(N)C(=O)[O][Co][Cl]` (centres unmarked) [Complex 20]: the results for the 50% inhibitory concentration (IC50) in experiment [3] (setting [5]), in experiment [1] and in experiment [2] were 281 µM, 100 µM and 57 µM, respectively.

As for `NC(=O)C(N)Cc1ccc(O)cc1.[Cl-].[Cl-].[Co+2]` (centres unmarked) [Complex 14], the half-maximal inhibitory concentration (IC50) came out at 20 µM in experiment [1] and 28 µM in experiment [2].

For `CN1CCCN=Cc2ccccc2[O][Co][O]c2ccccc2C=NCCC1` [Complex 40], the values for the half-inhibitory concentration (IC50) in experiment [1] and in experiment [2] were 41 µM and 95 µM, respectively.

For `NC(=O)[C@@H](N)Cc1ccc(O)cc1` [tyrosine amide], the cell growth inhibition entry in experiment [4] is reported as “not inhibitory; also recorded: neither free metal nor the tyrosine amide were inhibitory”.

Regarding `NCCNc1cccc2ccccc12.[Cl-].[Cl-].[Co+2]` [Complex 26], the IC50 in experiment [1] was 39 µM; in experiment [2], 65 µM.

Take `NC(=O)C(N)Cc1c[nH]c2ccccc12.[O-][Cl+3]([O-])([O-])[O][Co][O][Cl+3]([O-])([O-])[O-]` (centres unmarked) [Complex 13]: the values for the concentration for half-maximal inhibition (IC50) in experiment [3], in experiment [1] and in experiment [2] were 77 µM, 54 µM and 24 µM, respectively.

Turning to `NCC(N)=O.[Cl-].[Cl][Co][Cl].[Na+]` [Complex 17], the IC50 was 218 µM in experiment [3] (setting [5]), 22 µM in experiment [1] and 56 µM in experiment [2].

With `O=C(NO)c1ccccc1O.O=C(NO)c1ccccc1O.[Cl][Co][Cl]` [Complex 33], the IC50 in experiment [3] stood at 92 µM; in experiment [1] it was 2 µM; in experiment [2], 6 µM.

`[Cl][Co]1([Cl])[PH](c2ccccc2)(c2ccccc2)CC[PH]1(c1ccccc1)c1ccccc1` [Complex 38]: the 50% inhibitory concentration (IC50) in experiment [2] is 66 µM.

The compound `O=C([O-])c1ccccc1O.O=C([O-])c1ccccc1O.[Co+2]` [Complex 32] displayed an IC50 in experiment [1] of 182 µM.

On to “Co[N,N-bis(salicylidene)dianiline] [Complex 39]”, for which the half-inhibitory concentration (IC50) was 155 µM in experiment [1] (setting [5]) and 133 µM in experiment [2] (setting [5]).

For `CC(=O)C=C([O-])c1ccccc1.CC(=O)C=C([O-])c1ccccc1.[Co+2]` [Complex 43], the half-maximal inhibitory concentration (IC50) in experiment [1] was 83 µM; in experiment [2], 47 µM.

In the case of `NC(=O)CCC(N)C(N)=O.[Cl][Co][Cl]` (centres unmarked) [Complex 22], the 50% inhibitory concentration (IC50) in experiment [3] (setting [5]) was 361 µM; in experiment [1], 46 µM; in experiment [2] it was 71 µM.

`NC(=O)C(N)Cc1ccc(O)cc1.[OH][Co][Cl]` (centres unmarked) [Complex 15]: the half-inhibitory concentration (IC50) in experiment [3] (setting [5]) is 330 µM; in experiment [1] (setting [5]), 180 µM; in experiment [2], 46 µM.

Consider `N[C@H](c1ccccc1)[C@@H](N)c1ccccc1.N[C@H](c1ccccc1)[C@@H](N)c1ccccc1.[Cl][Co][Cl].[Cl][Co][Cl]` [Complex 27], for which the half-inhibitory concentration (IC50) in experiment [3] stood at 59 µM; in experiment [1], 17 µM; in experiment [2], 7 µM.

`CC(C)CC(N)C(N)=O.[Cl-].[Cl-].[Co+2]` (centres unmarked) [Complex 19]: the IC50 was 45 µM in experiment [1] and 35 µM in experiment [2].

In the case of `CC(C)CC(N)C(N)=O.[Cl-].[Cl-].[Co+2]` (centres unmarked) [Complex 18], the half-maximal inhibitory concentration (IC50) in experiment [3] (setting [5]) was 211 µM; in experiment [1] it was 38 µM; in experiment [2] (setting [5]), 105 µM.

Consider `C[SH]1CCC(N)C(=O)[N](O)[Co]1[OH]` (racemic) [Complex 4], for which the IC50 in experiment [2] (setting [5]) is 176 µM.

Turning to `NCCN.[Cl-].[Co+2].[OH-]` [Complex 24], the half-inhibitory concentration (IC50) in experiment [1] was 24 µM; in experiment [2] (setting [5]) it was 215 µM.

As to `[Co+2].[O-]c1ccccc1C=NCCN=Cc1ccccc1[O-]` [Complex 35, Co[N,N-bis(salicylidene)ethylenediamine]], the IC50 in experiment [3] was determined as 92 µM; in experiment [1] it was 3 µM; in experiment [2] it was 108 µM.
